What was measured:
[1] = system: Hartley VAF outbred guinea pigs; assay: Allergic conjunctivitis in passively sensitized guinea pigs (conjunctival EPO activity); format: in vivo; parameters: key: +: a 0.01% bid dose was statistically equivalent to dexamethasone with respect to reduction of EPO activity; −: the compound was statistically inferior to dexamethasone and not different than vehicle; details: 0.01% bid topical, 1 hour prior to and 8 hours after ovalbumin challenge; reduction of conjunctival EPO activity vs dexamethasone
Procedure: (§1) Male Hartley VAF outbred guinea pigs were passively sensitized to ovalbumin by a single OD subconjunctival injection of undiluted guinea pig anti-ovalbumin antiserum 24 hours before OD topical challenge with 500 μg ovalbumin in saline. Control animals were injected with saline only and challenged with ovalbumin. To determine acute phase drug efficacy, 30 min after challenge animals were clinically scored by a masked observer for severity of signs of conjunctivitis based on a standard scale. Test compounds were administered topically 1 hour prior to challenge (QD protocol), or 1 hour prior to challenge and again 8 hours after challenge (BID protocol). Twenty-four hours after challenge, animals were euthanized and conjunctivae were harvested for determination of tissue eosinophil peroxidase (EPO) concentration as a marker of allergic inflammation. Homogenates of freshly collected tissues were prepared by shaking the tissues in 2 mL round-bottom tubes containing 0.5 mL of homogenization buffer (50 mM Tris HCl, pH 8.0, 6 mM KBr) and one 5-mm stainless steel bead on a Qiagen TissueLyser at 30 Hz for 5 min. Homogenates were frozen and thawed once, then centrifuged at 10,000 rpm for 5 min. EPO activity in supernatants was measured by reacting diluted homogenates with a solution of 6 mM o-phenylenediamine substrate and 8.8 mM H2O2 in homogenization buffer for 3 min. The reaction was stopped with 4M H2SO4 and absorbances were measured at […] on a spectrophotometric plate reader. Total EPO in samples was calculated from a standard curve of recombinant human EPO in each assay. EPO activity was normalized to total protein concentration (Pierce BCA assay) in supernatants. Background EPO activity was determined from the unsensitized, antigen-challenged control group. Percent inhibition was calculated from the sensitized, antigen-challenged, vehicle-treated control group in each experiment. Ovalbumin-injected animals dosed topically with 0.1% w/v dexamethasone (dex) served as positive control. Groups were compared by ANOVA with Dunnett's or Tukey's post-hoc tests where appropriate with significance assigned at the 95% confidence level.
(§2) The table below summarizes the results.

[2] = system: Hartley VAF outbred guinea pigs; assay: as above; format: in vivo; parameters: key: +: a ≦0.1% qd dose was statistically equivalent to dexamethasone with respect to reduction of EPO activity; −: the compound was statistically inferior to dexamethasone and not different than vehicle; details: ≦0.1% qd topical, 1 hour prior to ovalbumin challenge; reduction of conjunctival EPO activity vs dexamethasone
Procedure: as §1, §2

Structure (SMILES) | BID activity [1] | QD activity [2]
CN1CCN(c2nc3ccc(Cl)cc3n3cnnc23)CC1 [Example 55, 8-chloro-4-(4-methylpiperazin-1-yl)-[1,2,4]triazolo[4,3-a]quinoxaline] | + | +
Clc1ccc2nc(N3CCNCC3)c3nncn3c2c1 [Example 57, 8-chloro-4-(piperazin-1-yl)-[1,2,4]triazolo[4,3-a]quinoxaline] | + | +
